Laboratory results: patent EP4796530A1 (Biocells (Beijing) Biotech Co., Ltd., priority 2023, dated 2025)

Experiments:
NLRP3 [1] = target: T1, NLRP3 (Mus musculus, UniProt Q8R4B8); assay: Inhibition curves (IC50) of canonical NLRP3 activation in J774A.1 cells, IL-1β release; assay type: cell-based; set-up: The mouse macrophage cell line J774A.1 was used, and LPS was used as the first signal; host or cells: J774A.1 mouse monocyte-macrophage cell line; conditions: J774A.1 cell LPS+Nig activation model
T1 sequence (Q8R4B8 whole entry): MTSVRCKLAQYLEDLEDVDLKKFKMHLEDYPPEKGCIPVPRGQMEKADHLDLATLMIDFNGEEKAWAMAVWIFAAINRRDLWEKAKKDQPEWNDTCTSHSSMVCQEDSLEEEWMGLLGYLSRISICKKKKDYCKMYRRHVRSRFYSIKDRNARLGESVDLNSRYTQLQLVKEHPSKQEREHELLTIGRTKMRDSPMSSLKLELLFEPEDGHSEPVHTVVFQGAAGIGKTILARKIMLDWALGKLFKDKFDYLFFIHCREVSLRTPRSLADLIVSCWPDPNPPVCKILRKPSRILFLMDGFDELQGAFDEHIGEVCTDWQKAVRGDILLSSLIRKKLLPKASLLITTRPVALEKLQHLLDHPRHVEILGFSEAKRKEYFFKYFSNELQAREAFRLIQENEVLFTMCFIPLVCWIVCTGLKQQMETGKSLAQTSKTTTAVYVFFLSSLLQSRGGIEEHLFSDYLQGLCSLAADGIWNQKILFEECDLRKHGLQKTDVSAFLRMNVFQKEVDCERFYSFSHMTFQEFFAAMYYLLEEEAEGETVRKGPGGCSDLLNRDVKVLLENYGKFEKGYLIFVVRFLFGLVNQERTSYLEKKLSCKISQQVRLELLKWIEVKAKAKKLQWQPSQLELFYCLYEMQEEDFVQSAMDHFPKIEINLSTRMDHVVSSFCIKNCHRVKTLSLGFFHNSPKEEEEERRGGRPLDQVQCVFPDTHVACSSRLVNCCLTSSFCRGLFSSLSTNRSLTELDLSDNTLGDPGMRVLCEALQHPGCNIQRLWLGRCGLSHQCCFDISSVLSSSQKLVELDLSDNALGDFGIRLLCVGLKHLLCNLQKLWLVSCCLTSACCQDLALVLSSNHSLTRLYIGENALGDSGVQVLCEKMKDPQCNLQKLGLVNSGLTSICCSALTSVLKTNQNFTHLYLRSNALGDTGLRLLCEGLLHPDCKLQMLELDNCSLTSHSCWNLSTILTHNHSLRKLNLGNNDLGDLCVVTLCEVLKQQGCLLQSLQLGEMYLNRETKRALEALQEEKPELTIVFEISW
Method: (§1) J774A.1 cells were plated in a 48-well plate at a density of 1.0×10^6 cells/mL, with 300 µL per well. Subsequently, NLRP3 was activated by LPS+ATP or LPS+Nig. […] ATP was purchased from Sigma, Cat. No.: L2654. Nig was purchased from Shanghai Yuanye Bio-Technology Co., Ltd., Cat. No.: S45490.
Experimental groups: a negative control group, an LPS-alone incubation control group, an LPS+ATP/Nig positive control group, and an example compound experimental group with different concentrations.
After the plated J774A.1 cells adhering to the plate, the culture medium was replaced. For all the groups except the negative control group, the culture medium was completely replaced with cell culture medium containing 1 µg/mL LPS. The negative control group received cell culture medium. Then, all the groups were incubated overnight. 18 h later, the culture medium was replaced again. The culture medium of the example compound experimental group was completely replaced with culture medium containing different concentrations of compounds; while the negative control group, the LPS-alone incubation control group, and the LPS+ATP/Nig positive control group received cell culture medium. 1 h later, the culture mediums of the LPS+ATP/Nig positive control group and the example compound experimental group with different concentrations were completely replaced with cell culture medium containing 5 mM ATP or 10 µM Nig. 1 h later, the cell supernatants were collected for IL-1β detection.
(§2) Therefore, the relative change in the amount of IL-1β release may directly reflect NLRP3 inhibitory effect. The inhibitory effect of the compounds varies with different concentrations, and based on this, an inhibition curve can be constructed, and the inhibitory effects of the compounds were assessed by IC50.

NLRP3 [2] = target: T1, NLRP3; assay: Inhibition of canonical NLRP3 activation (LPS+ATP/Nig) in J774A.1 cells, IL-1β release by ELISA, single concentration; assay type: cell-based; set-up: The mouse macrophage cell line J774A.1 was used, and LPS was used as the first signal; host or cells: J774A.1 mouse monocyte-macrophage cell line; conditions: J774.A1, 1 µM compound, LPS + 5 mM ATP or 10 µM Nig, compared with the positive control, read-out: inhibition of IL-1β release
Method: as §1, with “using LPS+5 mM ATP (adenosine triphosphate)” for “by LPS+ATP”, “10 µM Nig (nigericin).” for “LPS+Nig.”
Experimental groups: a negative control group, an LPS-alone incubation control group, an LPS+ATP or +Nig positive control group, and an example compound experimental group.
After the plated J774A.1 cells adhering to the plate, the culture medium was replaced. For all the groups except the negative control group, the culture medium was completely replaced with cell culture medium containing 1 µg/mL LPS. The negative control group received cell culture medium. Then, all the groups were incubated overnight. 18 h later, the culture medium was replaced again. The culture medium of the example compound experimental group was completely replaced with cell culture medium containing the compounds; while the negative control group, the LPS-alone incubation control group, and the LPS+ATP/Nig positive control group received cell culture medium. 1 h later, the culture mediums of the LPS+ATP/Nig positive control group and the example compound experimental group were completely replaced with cell culture medium containing 5 mM ATP or 10 µM Nig. 1 h later, the cell supernatants were collected for IL-1β detection.
Therefore, the relative change in the amount of IL-1β release may directly reflect NLRP3 inhibitory effect.

NLRP3 [3] = target: T2, NLRP3 (Homo sapiens, UniProt Q96P20); assay: Inhibition of canonical NLRP3 activation (LPS+Nig) in PMA-differentiated THP-1 cells, IL-1β release, single concentration; conditions: 1 µM compound, FIG. 6 legend
T2 sequence (Q96P20 whole entry, the tested form may be a part): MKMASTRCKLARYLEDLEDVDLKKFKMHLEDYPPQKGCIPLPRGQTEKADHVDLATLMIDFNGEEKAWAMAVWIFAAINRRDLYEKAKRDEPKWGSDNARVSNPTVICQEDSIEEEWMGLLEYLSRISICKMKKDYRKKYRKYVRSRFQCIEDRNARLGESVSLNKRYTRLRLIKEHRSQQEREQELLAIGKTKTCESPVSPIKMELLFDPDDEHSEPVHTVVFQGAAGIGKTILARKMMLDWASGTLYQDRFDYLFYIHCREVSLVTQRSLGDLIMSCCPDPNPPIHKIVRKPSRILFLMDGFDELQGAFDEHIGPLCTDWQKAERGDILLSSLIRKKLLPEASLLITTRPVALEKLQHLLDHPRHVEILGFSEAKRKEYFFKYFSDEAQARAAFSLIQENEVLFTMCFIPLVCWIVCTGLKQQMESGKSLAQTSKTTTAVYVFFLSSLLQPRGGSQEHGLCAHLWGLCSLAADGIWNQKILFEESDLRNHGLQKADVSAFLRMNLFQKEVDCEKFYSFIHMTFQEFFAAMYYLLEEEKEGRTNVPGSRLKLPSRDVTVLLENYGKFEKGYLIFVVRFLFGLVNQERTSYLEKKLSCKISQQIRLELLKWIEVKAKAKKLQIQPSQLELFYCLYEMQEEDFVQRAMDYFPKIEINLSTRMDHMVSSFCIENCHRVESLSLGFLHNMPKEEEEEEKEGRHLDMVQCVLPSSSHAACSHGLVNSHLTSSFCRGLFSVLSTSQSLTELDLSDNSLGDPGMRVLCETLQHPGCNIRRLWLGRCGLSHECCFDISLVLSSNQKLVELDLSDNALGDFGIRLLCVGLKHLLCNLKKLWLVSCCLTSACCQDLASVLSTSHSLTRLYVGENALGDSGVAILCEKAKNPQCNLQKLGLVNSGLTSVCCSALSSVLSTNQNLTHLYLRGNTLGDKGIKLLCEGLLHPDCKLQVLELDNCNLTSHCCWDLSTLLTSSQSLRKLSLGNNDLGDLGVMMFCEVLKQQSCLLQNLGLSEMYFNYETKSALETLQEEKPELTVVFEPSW
Method: THP-1 cells were plated in a 96-well plate at a density of 1.0×10^6 cells/mL, with 100 µL per well. Subsequently, PMA-induced differentiation and cell resting were performed, followed by activation of NLRP3 by LPS+Nig.
Experimental groups: a negative control group, an LPS-alone incubation control group, an LPS+Nig positive control group, and a 1 µM example compound experimental group.
100 ng/mL PMA was added at the same time as THP-1 cells were plated. After incubation for 24 h, the cells were washed three times with PBS, and then the culture medium was changed and the cells were allowed to rest for 24 h. Then the culture medium was completely replaced with medium containing 1 µg/mL LPS. The cells were incubated overnight. On the next day, the wells to which LPS was added completely received culture medium, and then the wells were incubated with specified example compounds for 1 h.
In this experimental example, effectively inhibiting IL-1β release means that the release amount in each group is reduced by 50% or more compared with that of the positive control.

[4] = Mouse pharmacokinetics after intravenous administration (plasma and brain, LC-MS); assay type: in vivo; conditions: C57 mice, intravenous 5 mg/kg; for concentration at 120 min: brain after cardiac perfusion, read-out: brain drug concentration at 120 min; for half-life / AUC: plasma; for AUC: read-out: area under the curve (AUC) from 1 to 120 min
Method: C57 mice were administered intravenously, at a dosage concentration of 5 mg/kg in each group. Retro-orbital blood collection was performed on the mice at 1 min, 30 min, 1 h, and 2 h post-dosing. The collected blood was centrifuged at 3000 rpm for 10 min at 4 °C to obtain plasma. Acetonitrile was added at a 1:3 volume ratio of plasma: acetonitrile to precipitate proteins. After centrifugation, the supernatant was collected and filtered. The concentration of the compound was detected using LC-MS (Agilent 1260-G6125, SIM mode). In addition, 2 h after drug injection, the mice were subjected to cardiac perfusion and then their brains were harvested. Following tissue homogenization and centrifugation, the supernatant was collected. Acetonitrile was added at a 1:3 volume ratio of supernatant: acetonitrile to precipitate proteins. After centrifugation, the supernatant was collected and filtered. The concentration of the compound was detected using LC-MS (Agilent 1260-G6125, SIM mode).
(§3) Experimental groups: a vehicle control group, and a dosing group.

NLRP3 [5] = target: T1, NLRP3; assay: Inhibition of APOE peptide-induced NLRP3 activation in J774A.1 cells, IL-1β release; assay type: cell-based; set-up: The mouse macrophage cell line J774A.1 was used, and LPS was used as the first signal; host or cells: J774A.1 mouse monocyte-macrophage cell line; conditions: J774.A1, 10 µM compound, 30 µg/mL APOE peptide
Method: J774A.1 cells were plated in a 48-well plate at a density of 1.0×10^6 cells/mL, with 300 µL per well. Subsequently, NLRP3 was activated by APOE peptide. The cell culture medium comprises: DMEM (brand: Gibco, Cat. No.: C12430500) + 10% fetal bovine serum (brand: Gibco, Cat. No.: 10099-141) + 1% sodium pyruvate (brand: Gibco, Cat. No.: 11360-070) + 1% penicillin-streptomycin solution (brand: Solarbio, Cat. No.: P1400). The J774A.1 mouse monocyte-macrophage cell line was purchased from the Cell Resource Center of the Institute of Basic Medical Sciences of Chinese Academy of Medical Sciences (Resource No. 1101MOU-PUMC000222). APOE2/3 peptide 1-151 was obtained through recombinant protein expression and purification by Biocells (Beijing) Biotech Co., Ltd. The procedures were as follows: the sequence (SEQ ID NO: 1) shown below was inserted into the pET-28A plasmid and transformed into BL-21(DE3) expression strain; the expression of target protein was induced with IPTG at a low temperature; after collecting the bacteria via centrifugation, ultrasonic disruption was performed; and after centrifugation, the supernatant was purified by nickel ion affinity chromatography (AKTA pure), and then the product was concentrated by ultrafiltration and identified by BCA+protein electrophoresis. Sequence: [formula]
Experimental groups: a negative control group, an APOE treatment control group, and an example compound experimental group.
After the plated J774A.1 cells adhering to the plate, the culture medium was replaced. The culture medium of the APOE treatment control group was replaced with cell culture medium containing 30 µg/mL APOE peptide, the culture medium of the example compound experimental group was replaced with culture medium containing 30 µg/mL APOE peptide combined with the compounds, and the negative control group received cell culture medium. Then, all the groups were incubated overnight. 18 h later, the cell supernatants were collected for IL-1β detection.
Activation of NLRP3 by APOE peptide will result in release of mature IL-1β, and the release can be inhibited by NLRP3 inhibitors. Therefore, the relative change in the amount of IL-1β release may directly reflect NLRP3 inhibitory effect.
In this experimental example, effective inhibition refers to a reduction of 70% or more in the release amount, compared with the release amount of the positive control minus the negative control.

NLRP3 [6] = target: T2, NLRP3; assay: Inhibition curves (IC50) of canonical NLRP3 activation in healthy human whole blood, IL-1β release; assay type: cell-based; conditions: LPS+1 mM ATP canonical activation model
Method: 10 mL of human whole blood was collected intravenously aseptically, and plated into a 96-well plate, with 198 µL per well. Then, 2 µL of 100× gradient dilutions of the example compounds at specified concentrations were added, immediately followed by the addition of 10 µL of 21 µg/mL LPS gradient dilution. 3 h later, nigericin with a working concentration of 5 µM or 1 mM ATP was added. After stimulation for 1 h, the whole blood was collected and centrifuged to collect the supernatant. IL-1β in the sample supernatant was detected by ELISA method.
Experimental groups: a negative control group, an LPS-alone incubation control group, an LPS+Nig/ATP positive control group, and a 1 µM example compound experimental group.
10 mL of human whole blood was collected intravenously aseptically. The anticoagulant heparin sodium was added preemptively into a 50 mL centrifuge tube. The collected whole blood was directly plated in a 96-well plate, with 198 µL per well. […] IL-1β in the sample supernatant was detected by ELISA method.
Therefore, the relative change in the amount of IL-1β release may directly reflect NLRP3 inhibitory effect. The inhibitory effect of the compounds varies with different concentrations, and based on this, an inhibition curve can be constructed, and the inhibitory effect of the compounds were assessed by IC50.

NLRP3 [7] = target: T2, NLRP3; assay: Inhibition curves (IC50) of canonical NLRP3 activation (LPS+Nig) in THP-1 cells, IL-1β release; assay type: cell-based; set-up: host or cells: THP-1 human acute monocytic leukemia cell line, PMA-differentiated; conditions: THP-1 cell LPS+Nig activation model
Method: Nig was purchased from Shanghai Yuanye Bio-Technology Co., Ltd., Cat. No.: S45490.
The cells were incubated overnight.
as §2

[8] = Rat plasma pharmacokinetics after intravenous administration (LC-MS); assay type: in vivo; conditions: SD rats, intravenous 2.5 mg/kg
Method: SD rats were administered intravenously, at a dosage concentration of 2.5 mg/kg in each group. Blood was collected at the time points of 1 min, 30 min, 1 h, 2 h, 4 h, 6 h, and 24 h. The collected blood was centrifuged at 3000 rpm for 10 min at 4 °C to obtain plasma. Acetonitrile was added at a 1:3 volume ratio of plasma: acetonitrile to precipitate proteins. After centrifugation, the supernatant was collected and filtered. The concentration of the compound was detected using LC-MS (Agilent 1260-G6125, SIM mode).
as §3

SMILES	IC50 (NLRP3 [1]) [nM]	inhibition at 1 µM (NLRP3 [2]) [%]	concentration at 120 min [4] [ng/mL]	half-life [4] [min]	AUC [4] [ng·h/mL]	inhibition at 10 µM (NLRP3 [5]) [%]	also measured
CN(C)Cc1cccc(S(=O)(=O)NC(=O)Nc2c3c(cc4c2CCC4)CCC3)c1Cl [Example 1, 2-chloro-3-((dimethylamino)methyl)-N-((1,2,3,5,6,7-hexahydro-s-indacen-4-yl)carbamoyl)benzenesulfonamide]	64.6	> 80	–	–	–	–	–
CN(C)Cc1cc(S(=O)(=O)NC(=O)Nc2c3c(cc4c2CCC4)CCC3)cc(F)c1O [Example 17, 3-((dimethylamino)methyl)-5-fluoro-N-((1,2,3,5,6,7-hexahydro-s-indacen-4-yl)carbamoyl)-4-hydroxybenzenesulfonamide]	194	> 80	184	231	15500	≥ 70	reduction in release amount compared with that of the positive control minus the LPS-alone control (NLRP3 [3]): ≥ 75%
CN(C)Cc1cc(S(=O)(=O)NC(=O)Nc2c3c(cc4c2CCC4)CCC3)c(F)cc1N [Example 22, 4-amino-5-((dimethylamino)methyl)-2-fluoro-N-((1,2,3,5,6,7-hexahydros-indacen-4-yl)carbamoyl)benzenesulfonamide]	127	> 80	–	–	–	≥ 70	–
Cc1c(CN(C)C)cccc1S(=O)(=O)NC(=O)Nc1c2c(cc3c1CCC3)CCC2 [Example 26, 3-((dimethylamino)methyl)-N-((1,2,3,5,6,7-hexahydro-s-indacen-4-yl)carbamoyl)-2-methylbenzenesulfonamide]	81.6	> 80	–	–	–	≥ 70	–
CN(C)Cc1cccc(S(=O)(=O)NC(=O)Nc2c3c(cc4c2CCC4)CCC3)c1O [Example 27, 3-((dimethylamino)methyl)-N-((1,2,3,5,6,7-hexahydro-s-indacen-4-yl)carbamoyl)-2-hydroxybenzenesulfonamide]	79.6	> 80	96	173	47300	–	reduction in release amount compared with that of the positive control minus the LPS-alone control (NLRP3 [3]): ≥ 75%; IC50 (NLRP3 [6]): 55.8 µM
Cc1c(S(=O)(=O)NC(=O)Nc2c3c(cc4c2CCC4)CCC3)ccc(O)c1CN(C)C [Example 30, 3-((dimethylamino)methyl)-N-((1,2,3,5,6,7-hexahydro-s-indacen-4-yl)carbamoyl)-4-hydroxy-2-methylbenzenesulfonamide]	144	–	–	–	–	–	IC50 (NLRP3 [7]): 36.7 nM
CN(C)Cc1c(O)ccc(S(=O)(=O)NC(=O)Nc2c3c(cc4c2CCC4)CCC3)c1F [Example 31, 3-((dimethylamino)methyl)-2-fluoro-N-((1,2,3,5,6,7-hexahydro-s-indacen-4-yl)carbamoyl)-4-hydroxybenzenesulfonamide]	203	–	–	–	–	–	–
CN(C)C1CCOc2c1cccc2S(=O)(=O)NC(=O)Nc1c2c(cc3c1CCC3)CCC2 (stereo not shown) [Example 32, 4-(dimethylamino)-N-((1,2,3,5,6,7-hexahydro-s-indacen-4-yl)carbamoyl)chromane-8-sulfonamide]	390	–	–	–	–	–	–
CC(C)(O)c1coc(S(=O)(=O)NC(=O)Nc2c3c(cc4c2CCC4)CCC3)c1 [MCC950, reference compound]	–	–	0	77	29600	–	half-life [8]: 16 min; AUC ([8]; read-out: AUC from 1 to 1440 min): 4380 ng·h/mL
